{"source": "patent US11518981B2", "about": "“Methods of enhancing engraftment activity of hematopoietic stem cells” (CHILDREN'S HOSPITAL MEDICAL CENTER, priority 2017, dated 2022)", "key": {"[1]": {"test_system": "human MPB derived CD34^+ cells", "test": "long term repopulating potential (LTRP) in secondary transplanted (2 T) NSG mice", "assay_type": "in vivo", "settings": "CD34^+ cells cultured 36-42 h and 72-96 h; 6 weeks post 2 T", "text": "NOD.Cg-Prkdcscid Il2rgtm1Wjl/SzJ (NSG) mice were purchased from The Jackson Laboratory (Bar Harbor, Me.). All animals were bred and maintained in a specific pathogen-free environment and all experiments were approved by the Institutional Animal Care and Use (IACUC) Committee. Male and female NSG mice aged 8 to 14 weeks old were fed doxycycline chow (TestDiet; Modified Prolab RMH-1500 with 0.0625% doxycycline) a week prior to, during and for 2 weeks post irradiation. Human engraftment was analyzed in bone marrow (BM), via BM aspirates performed at 6 and 12 weeks from left and right femurs. After sacrifice at 24 weeks, marrow from all of the primary mice (1 T) was harvested. Peripheral blood analysis was also performed in some experiments. Secondary transplants (2 T) were performed after mouse CD45^+ cells were depleted from BM harvested from each 1 T mouse separately, using Biotin Rat Anti-Mouse CD45 (BD Biosciences 553078) and Streptavidin Particles Plus-DM (BD Biosciences 557812) and injected into one irradiated (280 cGy) secondary NSG mouse. For calculating competitive repopulating units (CRU) from limiting dilution transplantation, the L-CALC^TM software (Stem Cell Technologies) was used. All of the mice used for this study were randomly assigned to a treatment group. No animals were excluded from the analysis."}, "CD34^+38^−90^+ cells": {"test_system": "CD34^+38^−90^+ cells", "test": "Annexin V apoptosis assay in HSCs", "assay_type": "cell-based, human", "settings": "annexin V^+ CD34^+38^−90^+ cells", "text": "(§1) PE-Cyanine 7 or APC-EFLUOR® 780, APC- or PE-conjugated antibodies directed to human CD34 (BD Biosciences 560710 or 555824), CD38 (eBiosciences, San Diego, Calif. 47-0389-42), CD90 (BioLegend 328120), CD45RA (eBiosciences 17-0458-42), CD49f (BD Biosciences 555736), CD45 (BD 55485 or Biolegend 304026), CD33 (eBiosciences 25-0338-42), CD19 (BD Biosciences 557791), or CD3 (BD Biosciences 555340). Cells (˜5×10^5−1×10^6) were used to label with antibodies as per manufacturer instructions with the appropriate isotype controls. For phospho-flow, primary antibodies phospho-p38 (Thr180/Tyr182; 4092S), phospho-p44/42 MAPK (ERK ½) (Thr202/Tyr204; 4094S), and phospho-JNK (Thr183-Tyr185 PE conjugate; 5755S) (all from Cell Signaling) were used for staining overnight followed by wash and secondary antibody stain including Goat anti-Rabbit IgG (H+L) or Goat anti-Rabbit IgG (H+L) or Pacific Blue (P-10994) antibody. Apoptosis assay was performed using PE Annexin V Apoptosis Detection Kit (BD Biosciences 559763) according to the manufacturer's instructions. Total ROS and mitochondrial specific ROS were detected using 10 μM CM-H2DCFDA (ThermoFisher Scientific C6827) and 5 μM MITOSOX™ Red (Red Mitochondrial Superoxide Indicator) (ThermoFisher Scientific M36008) respectively, following manufacturer's instructions."}, "CD34^+38^−90^+ HSCs [2]": {"test_system": "CD34^+38^−90^+ HSCs", "test": "ROS measurement (MITOSOX / CM-H2DCFDA) in HSCs", "assay_type": "cell-based, human", "settings": "MITOSOX in CD34^+38^−90^+ cells", "experimental": "Freshly isolated CD34^+ cells were used, wherever possible, and especially for 0 h controls. In some experiments cryopreserved CD34^+ cells were thawed for 4 hrs in IMDM containing cytokines, then washed and used for experiments. CD34^+ cells were transduced in X-VIVO 10™ (Lonza) medium supplemented with 2% human serum albumin (Baxter), recombinant human Flt-3 ligand (Flt3-L; 200 ng/mL), stem cell factor (SCF; 300 ng/mL), thrombopoietin (TPO; 100 ng/mL) (all cytokines obtained from PeproTech), and penicillin-streptomycin (ThermoFisher Scientific) on non-tissue culture treated plates coated with retronectin (4 μg/cm2, CH-296, Takara Bio Inc.). […]\nPE-Cyanine 7 or APC-EFLUOR® 780, APC- or PE-conjugated antibodies directed to human CD34 (BD Biosciences 560710 or 555824), CD38 (eBiosciences, San Diego, Calif. 47-0389-42), CD90 (BioLegend 328120), CD45RA (eBiosciences 17-0458-42), CD49f (BD Biosciences 555736), CD45 (BD 55485 or Biolegend 304026), CD33 (eBiosciences 25-0338-42), CD19 (BD Biosciences 557791), or CD3 (BD Biosciences 555340). […] Total ROS and mitochondrial specific ROS were detected using 10 μM CM-H2DCFDA (ThermoFisher Scientific C6827) and 5 μM MITOSOX™ Red (Red Mitochondrial Superoxide Indicator) (ThermoFisher Scientific M36008) respectively, following manufacturer's instructions."}, "γH2AX": {"test_system": "γH2AX", "test": "DNA damage response (γH2AX, 53BP1) by immunofluorescence and flow cytometry", "assay_type": "cell-based, human", "experimental": "For EdU incorporation assay, cells were incubated with 10 μM EdU throughout the culture period and the CLICK-IT® Plus EdU Pacific Blue Flow Cytometry Assay Kit (ThermoFisher Scientific C10636) was used for staining. […] Samples were run through a FACSCANTOTM, FORTESSATM, or LSR 2 flow cytometers (BD Biosciences), and the data was analyzed by […] software (BD). […] II cell sorter. FACS sorted CD34+38-90+ cells were fixed in 2% paraformaldehyde and permeabilized using 0.1% […] polyether alcohol, Sigma-Aldrich). […] Cells were counterstained and mounted with […]® antifade mounting medium with DAPI (H-1200 Vector Laboratories). Images were obtained using a Nikon 90i upright microscope."}, "CD34^+38^−90^+ HSCs [3]": {"test_system": "CD34^+38^−90^+ HSCs", "test": "cell cycle analysis (Ki-67 / Hoechst) of HSCs", "assay_type": "cell-based, human"}, "[4]": {"test_system": "CD34^+38^−90^+45RA^−49f^+ HSCs", "test": "phenotypic HSC population by flow cytometry", "assay_type": "cell-based, human", "text": "as §1"}, "[5]": {"settings": "before the first HSC division in vitro (24 h)"}}, "data": [{"smiles": "Cc1ccc(-n2nc(C(C)(C)C)cc2NC(=O)Nc2ccc(OCCN3CCOCC3)c3ccccc23)cc1", "note": "[p38i, 1-[5-tert-butyl-2-(4-methylphenyl)pyrazol-3-yl]-3-[4-(2-morpholin-4-ylethoxy)naphthalen-1-yl]urea]", "values": [{"measurement": "LTRP in 2 T mice", "setting": "[1]", "result": "restored the LTRP in 2 T mice to levels seen with unmanipulated HSPCs"}, {"measurement": "apoptosis in the HSC compartment", "setting": "CD34^+38^−90^+ cells", "result": "no difference"}, {"measurement": "ROS levels in the HSC compartment", "setting": "CD34^+38^−90^+ HSCs [2]", "result": "no difference"}, {"measurement": "γH2AX levels in the transduced HSCs", "setting": "γH2AX; 72 h, RV transduced cycling HSCs", "result": "significantly reduced"}, {"measurement": "percentage of γH2AX^+ cells", "setting": "γH2AX; flow cytometry, 36-42 h and 72-96 h groups", "result": "significantly reduced"}, {"measurement": "γH2AX MFI and number of γH2AX positive HSC", "setting": "γH2AX; flow cytometry, 24 h", "result": "returned to levels seen in unmanipulated HSCs"}, {"measurement": "percentage of cells in the different phases of cell cycle", "setting": "CD34^+38^−90^+ HSCs [3]; HSCs transduced when actively cycling (RV)", "result": "no difference"}, {"measurement": "effect on increasing the G0 population", "setting": "CD34^+38^−90^+ HSCs [3]; after HSCs progressed through cell cycle", "result": "lost"}, {"measurement": "proportion of HSCs in the G0 quiescent phase", "setting": "CD34^+38^−90^+ HSCs [3]; [5]", "result": "significantly increased"}, {"measurement": "proportion of HSCs in the S-G2M phase", "setting": "CD34^+38^−90^+ HSCs [3]; [5]", "result": "decreased"}, {"measurement": "increased phenotypic HSC population", "setting": "[4]; other than prolonged cultures", "result": "similar"}, {"measurement": "phenotypic HSCs", "setting": "[4]; prolonged cultures", "result": "higher"}]}]}
